The source made the active and inactive calls.
Experiments:
[1] = target: T1, Oxysterols receptor LXR-beta (Homo sapiens, UniProt P55055); format: functional, cell-based;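 note: agonist activity at LXR measured by a cell-based luminescence readout across a dose range, run as a counterscreen for daf-12 agonists; HEK293 cells with Gal4-LXR fusion and GAL4-driven luciferase reporter; potency for activation of Gal4-LXR reporter so compounds are agonists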
T1 sequence (P55055 whole entry): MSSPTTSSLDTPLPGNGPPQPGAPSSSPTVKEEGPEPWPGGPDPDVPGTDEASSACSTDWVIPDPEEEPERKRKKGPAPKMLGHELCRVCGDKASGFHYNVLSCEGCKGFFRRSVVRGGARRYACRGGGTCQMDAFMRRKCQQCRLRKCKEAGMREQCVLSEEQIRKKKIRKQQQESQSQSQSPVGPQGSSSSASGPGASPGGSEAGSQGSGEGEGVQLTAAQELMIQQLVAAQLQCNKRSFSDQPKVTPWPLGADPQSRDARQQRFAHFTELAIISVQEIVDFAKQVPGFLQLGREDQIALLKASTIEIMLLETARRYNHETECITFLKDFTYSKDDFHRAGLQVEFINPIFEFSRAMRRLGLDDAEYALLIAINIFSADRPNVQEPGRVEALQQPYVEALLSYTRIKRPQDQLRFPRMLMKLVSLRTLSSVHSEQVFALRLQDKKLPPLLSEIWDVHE

[2] = MC4R antagonists, dose response, counter-screen for LGR2 antagonist project, cell-based, plate reader, cherry pick (AID 743444); format: functional;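 note: transfected HEK 293 cells stimulated with alpha-MSH peptide; potency of inhibitors of the alpha-MSH evoked signal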
[3] = LGR2 antagonists, dose response, cell-based, HEK293, CRE-luciferase reporter, cherry pick, set 2 (AID 743343); format: functional;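 note: transfected cells were stimulated with diluted bursicon conditioned medium after compound addition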
[4] = target: Beta-2 adrenergic receptor (Homo sapiens, UniProt P07550); assay: beta2AR agonists driving receptor internalization, dose response, cell-based, FAP fluorogen, flow cytometry, cherry pick 1 (AID 588763); format: functional
Chain of Beta-2 adrenergic receptor (P07550 whole entry): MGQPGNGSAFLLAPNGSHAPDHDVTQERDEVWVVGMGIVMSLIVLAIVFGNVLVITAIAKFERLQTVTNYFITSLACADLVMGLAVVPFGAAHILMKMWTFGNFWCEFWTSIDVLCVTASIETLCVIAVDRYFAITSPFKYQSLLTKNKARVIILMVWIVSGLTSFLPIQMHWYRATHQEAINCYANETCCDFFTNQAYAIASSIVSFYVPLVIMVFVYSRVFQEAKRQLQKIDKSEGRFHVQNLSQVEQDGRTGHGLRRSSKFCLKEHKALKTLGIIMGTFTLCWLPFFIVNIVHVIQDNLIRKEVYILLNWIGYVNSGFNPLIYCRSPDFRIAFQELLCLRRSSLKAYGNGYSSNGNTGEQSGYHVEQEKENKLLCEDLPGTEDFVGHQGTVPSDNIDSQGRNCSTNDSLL

[5] = target: Paired box protein Pax-8 (Homo sapiens, UniProt Q06710); assay: inhibitors of PAX8-driven TPO luciferase reporter, dose response, RMG-I cells, cherry-pick (AID 687027); format: functional, cell-based;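 note: luciferase reporter driven by Pax8 target thyroperoxidase promoter measured by SteadyGlo luminescence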
Chain of Paired box protein Pax-8 (Q06710 whole entry): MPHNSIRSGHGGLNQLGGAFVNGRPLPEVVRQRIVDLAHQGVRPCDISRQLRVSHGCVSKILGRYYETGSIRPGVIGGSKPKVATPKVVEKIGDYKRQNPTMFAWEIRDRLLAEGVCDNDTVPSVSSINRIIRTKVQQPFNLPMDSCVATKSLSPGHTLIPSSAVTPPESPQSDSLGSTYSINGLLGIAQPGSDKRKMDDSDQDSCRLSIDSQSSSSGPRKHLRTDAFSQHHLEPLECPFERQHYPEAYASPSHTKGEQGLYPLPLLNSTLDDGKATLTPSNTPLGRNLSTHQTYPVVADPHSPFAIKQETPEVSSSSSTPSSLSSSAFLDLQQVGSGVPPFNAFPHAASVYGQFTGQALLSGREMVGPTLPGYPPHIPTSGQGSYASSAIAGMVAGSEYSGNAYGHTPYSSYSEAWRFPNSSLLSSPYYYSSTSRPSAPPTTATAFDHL

[6] = A549 cell cytotoxicity, dose response, cytotoxicity control, plate reader, cherry-pick, antagonist series (AID 743412); format: functional, cell-based
[7] = HepG2 cell cytotoxicity, dose response, cytotoxicity control for Shn3 inhibitor project, CellTiter-Glo, cherry-picked (AID 624134); format: functional, cell-based
[8] = reduction of endogenous Shn3 mRNA, dose response, qPCR, Clone20 cells, cherry-pick (AID 743415); format: functional, cell-based
[9] = HepG2 cell cytotoxicity, dose response, cytotoxicity control, plate reader, cherry-pick, antagonist series (AID 743416); format: functional, cell-based
[10] = Shn3 3'UTR reporter inhibitors, dose response, cell-based, Clone20 osteoblasts, firefly luciferase, cherry-picked (AID 624132); format: functional;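 note: firefly luciferase luminescence from reporter carrying the Shn3 3'UTR in osteoblasts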
[11] = control 3'UTR Renilla luciferase suppression, dose response, counter-screen for Shn3 inhibitor project, cell-based, Clone20-Shn3RL, cherry-picked (AID 624133); format: functional
[12] = reduction of Shn3 3'UTR firefly luciferase signal, dose response, Schnurri-3 inhibitor project, cell-based, Clone20 osteoblasts, cherry-pick, set 2 (AID 720490); format: functional;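 note: actives lower the luminescence signal as inhibitors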
[13] = inhibitors of control Renilla luciferase reporter, dose response, counter-screen for Shn3 3'UTR targeting project, Clone20-Shn3RL cells, dual-Glo, cherry-pick, set 2 (AID 720724); format: functional, cell-based; details: Dual-Go Shn3RL
[14] = HEK293 cell cytotoxicity, dose response, cytotoxicity control, plate reader, cherry-picked samples (AID 743446); format: functional, cell-based
[15] = HIV Env cell-cell fusion inhibitors, dose response, HIV entry, plate reader, dry powder (AID 687023); format: functional, cell-based
[16] = inhibitors of HIV Env-driven cell fusion, dose response, cherry-pick (AID 652057); format: functional, cell-based
[17] = inhibitors of clade B AD8 Env fusion, dose response, cell-based, cherry-pick (AID 652062); format: functional;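 note: luciferase signal from cell-cell fusion driven by HIV-1 clade B AD8 Env; potency is for inhibitors of fusion seen as a drop in luminescence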
[18] = ZM109 Env clade C HIV-1 fusion inhibitors, dose response, HeLa effector, CEM target cells, luciferase, cherry-pick (AID 652058); format: functional, cell-based
[19] = A375 melanoma cell viability loss, dose response, counter-screen for MITF inhibitor project, CellTiter-Glo luminescence, dry powder, set 4 (AID 624364); format: functional, cell-based; details: A-375;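 note: A375 melanoma cells are MITF independent so this is a counter screen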
[20] = A375 melanoma cell cytotoxicity, dose response, counter-screen for MITF inhibitor project, CellTiter-Glo luminescence, dry powder, set 2 (AID 624489); format: functional, cell-based; details: A-375;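 note: actives are compounds lowering A375 viability meaning general cytotoxicity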
[21] = cytotoxicity in COV362 ovarian cancer cells, dose response, cytotoxicity control for PAX8 inhibitor project, cell-based, plate reader, dry powder, SA12 (AID 743144); format: functional
[22] = cytotoxicity in OVCAR4 cells, dose response, cytotoxicity control for PAX8 inhibitor project, cell-based, plate reader, dry powder, SA11 (AID 743150); format: functional; details: OVCAR-4
[23] = NIH:OVCAR-3 ovarian cancer cell cytotoxicity, dose response, PAX8 inhibitor project, plate reader, dry powder samples (AID 743044); format: functional, cell-based
[24] = cytotoxicity in HEK-293T cells, dose response, cytotoxicity control for TCR NF-kB inhibitor project, luminescence, T-cell screen hits (AID 489026); format: functional, cell-based;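 note: cells exposed to compound about 14 hours before the viability readout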
[25] = cytotoxicity in COV434 cells, dose response, cytotoxicity control for PAX8 inhibitor project, cell-based, plate reader, dry powder, SA7 (AID 743145); format: functional
[26] = PAX5 activity inhibitors, dose response, selectivity assay for PAX8 inhibitor project, cell-based, plate reader, dry powder samples (AID 743047); format: functional;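 note: HEK293 cells carrying a Pax5 driven CD19 promoter luciferase reporter; potency of inhibitors that lower reporter luminescence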
[27] = cytotoxicity in OV-90 ovarian cancer cells, dose response, PAX8 inhibitor project, cell-based, plate reader, dry powder, SA8 (AID 743149); format: functional
[28] = cytotoxicity dependent on PAX8, dose response, cell-based, plate reader, dry powder (AID 743049); format: functional
[29] = A2780 ovarian cancer cell cytotoxicity, dose response, cytotoxicity control, plate reader, dry powder samples (AID 743046); format: functional, cell-based
[30] = IGROV1 ovarian cancer cell cytotoxicity, dose response, PAX8 inhibitor project, plate reader, dry powder samples (AID 743043); format: functional, cell-based; details: IGROV-1
[31] = non-specific cell cytotoxicity, dose response, cytotoxicity control for PAX8 inhibitor project, plate reader, dry powder samples (AID 743021); format: functional, cell-based
[32] = PAX2 cell-based inhibition, dose response, selectivity assay for PAX8 inhibitor project, plate reader, dry powder samples (AID 743048); format: functional;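 note: HEK293 cells carrying a WT1 promoter luciferase reporter driven by expressed Pax2; potency is for inhibition of Pax2 driven reporter signal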
[33] = IOSE-T80 ovarian epithelial cell cytotoxicity, dose response, cytotoxicity control for PAX8 inhibitor project, plate reader, dry powder samples (AID 743045); format: functional, cell-based

In the case of `Nc1c(-c2cccs2)cnc2c(-c3ccc(F)cc3)cnn12`, the EC50 [1] is reported as > 67.5 µM (inactive).

With `Cn1nnnc1Sc1ncnc2scc(-c3ccc(Br)cc3)c12` the AC50 [2] was 15.6 µM (active), the AC50 [3] was 8.94 µM (active) and the EC50 [4] was 8.44 µM (active). For the same compound, the AC50 [5] was 3.56 µM (active), the AC50 [6] was 6.82 µM (active) and the AC50 [7] was 19.2 µM (active). The AC50 [8] was 17.6 µM (active), the AC50 [9] was 7.97 µM (active) and the AC50 [10] was 0.334 µM (active). The AC50 [11] was 14.4 µM (active), the AC50 [12] was 5.82 µM (active) and the AC50 [13] was 5.09 µM (active). For the same compound, the AC50 [14] was 11.2 µM (active).

With `Cn1c(C(=O)N2CCN(c3nc4ccccc4s3)CC2)cc2sccc21` the AC50 [15] was 8.02 µM (active), the AC50 [16] was 3.01 µM (active) and the AC50 [17] was 16.4 µM (active). For the same compound, the AC50 [18] was 4.97 µM (active).

For `C=C1C(=O)OC2C1CC/C(C)=C\CCC1(C)OC21` (centres undefined), the AC50 [19] was > 70 µM (inactive) and the AC50 [20] was 43.9 µM (active).

With `Cc1cnc(NC(=O)c2ccc3c(c2)OCCO3)s1` the AC50 [2] was 0.794 µM (active), the AC50 [21] was 10.2 µM (active) and the AC50 [3] was 0.854 µM (active). For the same compound, the AC50 [22] was 26.8 µM (active), the AC50 [23] was 18.4 µM (active) and the AC50 [5] was 3.49 µM (active). The AC50 [6] was 5.12 µM (active), the IC50 [24] was > 80 µM (inactive) and the AC50 [25] was 29.4 µM (active). The AC50 [26] was 17.5 µM (active), the AC50 [27] was 9.33 µM (active) and the AC50 [9] was 36 µM (active). The AC50 [28] was 13.1 µM (active), the AC50 [29] was 28.8 µM (active) and the AC50 [30] was 20.7 µM (active). For the same compound, the AC50 [31] was 52.3 µM (active), the AC50 [32] was 13.4 µM (active) and the AC50 [33] was 26 µM (active). For the same compound, the AC50 [14] was 31.4 µM (active).

Reference: ChEMBL document CHEMBL1201862, “PubChem BioAssay data set” (2004)
